# Measured values from PMC6121439 (International Journal of Molecular Sciences, 2018).
# No end group written: not given here.
# Tests used:
# E. coli cells [1] = test: Bacterial cell leakage, SYTOX Green; assay type: cell-based, Escherichia coli; settings: SYTOX Green 5 µM, 40 min, Triton X-100 = maximum, mean ± SEM
# E. coli (BL21) [2] = test: Minimum bactericidal concentration (CFU counting); assay type: cell-based, Escherichia coli; settings: ~5 × 10^5 CFU/mL, peptide 20 to 0.1 µM in Hepes 20 mM, 0.1 M NaCl, pH 7.5, 4 h at 37 °C, then plating, two independent experiments in triplicate
# Method: (§1) Minimum Bactericidal Concentrations (MBC100) were determined by CFU counting following plating of bacterial culture onto Petri dishes after four hours of incubation with serial peptide concentrations. The ED50 was calculated by ATP quantification using the BacTiter-Glo™ Microbial Cell Viability kit (Promega, Madison, WI, USA). Cell cytotoxicity was quantified using resazurin reduction in human monocytes. Fifty percent cytotoxic concentration (CC50) was calculated as described in Materials and methods. […] Values are given as mean ± SEM.
# (§2) The MBC of each peptide was determined as described previously. Bacteria were incubated at 37 °C overnight in Luria-Bertani broth (LB) and diluted to approximately 5 × 10^5 CFU/mL. The strains used in this study corresponded to Escherichia coli BL21 from Novagen (Madison, WI, USA), Staphylococcus aureus (ATCC502A) obtained from the Colección Española de Cultivos tipo (CECT), Universidad de Valencia, Spain, Pseudomonas aeruginosa (ATCC® 15692, PAO1), from the American Type Culture Collection (ATCC; Rockville, MD, USA) and P. aeruginosa PA14 were used as reference strains. Three clinical isolates of S. aureus, MRSA (34026, 36055 and 39413) and two clinical isolates of P. aeruginosa (M8C1 and M18C1) were obtained by the kind donation of the Centro de Investigaciones Microbiológicas, CIMIC (Universidad de los Andes, Bogotá, Colombia). […]
# P. aeruginosa (PA14) = test: Bacterial viability by ATP quantification (BacTiter-Glo); assay type: cell-based, Pseudomonas aeruginosa; settings: P. aeruginosa PA14 reference strain; ATP luminescence; 4 h at 37 °C; mean ± SEM, three replicates of two experiments
# Method: as §1
# (§3) The MBC of each peptide was determined as described previously. Bacteria were incubated at 37 °C overnight in Luria-Bertani broth (LB) and diluted to approximately 5 × 10^5 CFU/mL. […]
# (§4) Antibacterial activity was assayed by following the cell viability of E. coli and S. aureus, using the BacTiter-Glo™ Microbial Cell Viability kit (Promega), which measures the number of viable bacterial cells, by ATP quantification. ATP, as an indicator of metabolically active cells, is indirectly measured by a coupled luminescence detection assay. […]
# P. aeruginosa (PA01) = test: as above; assay type: cell-based, Pseudomonas aeruginosa; settings: P. aeruginosa PA01 reference strain; ATP luminescence; 4 h at 37 °C; mean ± SEM, three replicates of two experiments
# Method: as §1, §3, §4
# [3] = Liposome agglutination by dynamic light scattering; settings: DOPC/DOPG LUVs 30 µM; DLS; 25 °C; 10 mM Tris/HCl, 100 mM NaCl pH 7.4; peptide 0.1–2 µM
# E. coli cells [4] = test: Minimum agglutination concentration on bacteria; assay type: cell-based, Escherichia coli; settings: Tris-HCl, 0.1 M NaCl, pH 7.5, 1 h at 37 °C, visual inspection, 50× stereoscope
# Method: For determination of minimum agglutination concentration (MAC) values, bacterial cells were grown at 37 °C to mid-exponential phase (OD600 = 0.6), centrifuged at 5000× g for 2 min, and resuspended in Tris-HCl buffer, 0.1 M NaCl, pH 7.5 to give an absorbance of 0.2 at 600 nm. A 100 µL aliquot of the bacterial suspension was incubated with the peptide at various (0.01–10 µM) concentrations at 37 °C for 1 h. Agglutination behavior was observed by visual inspection using a 50× stereoscope microscope and the MAC value was expressed as described.
# pET28 plasmid DNA = test: DNA binding gel retardation assay; settings: 200 ng pET28 plasmid DNA; peptide-to-DNA weight ratios 2.5:1, 5:1, 10:1; 20 min room temperature; 1.0% agarose gel
# E. coli (BL21) [5] = test: Bacterial viability by ATP quantification (BacTiter-Glo); assay type: cell-based, Escherichia coli; settings: ATP luminescence, 4 h at 37 °C, Hepes 20 mM pH 7.5, 0.1 M NaCl, peptide 100 to 0.1 µM, mean ± SEM, three replicates of two experiments
# Method: as §1
# (§5) Antibacterial activity was assayed by following the cell viability of E. coli and S. aureus, using the BacTiter-Glo™ Microbial Cell Viability kit (Promega), which measures the number of viable bacterial cells, by ATP quantification. ATP, as an indicator of metabolically active cells, is indirectly measured by a coupled luminescence detection assay. The luminescent signal is proportional to the amount of ATP required for the conversion of luciferin into oxyluciferin in the presence of luciferase.
# E. coli cells [6] = test: Bacterial membrane depolarization, DiSC3(5) dye; assay type: cell-based, Escherichia coli; settings: DiSC3(5) 0.4 µM, peptide 0.1 to 5 µM, 20 °C, mean ± SEM
# [7] = test system: S. aureus genes 16S, parE, MprF; test: Bacterial gene expression by RT-qPCR; assay type: cell-based, Staphylococcus aureus; settings: 0.1 µM, 30 min, RT-qPCR normalized to GAPDH
# Method: (§6) The bacterial gene expression of proteins implicated in stress pathways and bacterial resistance response was evaluated following incubation with sub-lethal concentrations of the peptides. The following genes were selected: DnaK gene encoding for a chaperone, ompC gene encoding for a protein porin; sbmA encoding for an integral inner membrane protein that participates in an ABC transporter, parE encoding for a DNA topoisomerase IV and MprF for a lysyl transferase that ensures the synthesis of lysylphosphatidylglycerol (LPG). Total bacterial RNA was extracted using the mirVAna™ Isolation Kit, which integrates an organic extraction and solid-phase extraction to obtain high yields of ultra-pure, high quality RNA. […] Ampicillin was used at the same concentration as a positive control. After incubation cells were sedimented and resuspended in lysis buffer. RNA isolation was done according to manufacturer’s instructions. The amount of RNA extracted was quantified using Quantus™ Fluorometer (Promega). […] Complementary DNA (cDNA) synthesis is the first step of the two-step quantitative reverse transcriptase Polymerase Chain Reaction (RT-qPCR). cDNA was generated by the enzyme reverse transcriptase (RT). An aliquot of 1000 ng of total RNA was used to synthesize cDNA according to the manufacture instruction of iScript™ cDNA Synthesis Kit.
# Gene expression of Escherichia coli and Staphylococcus aureus after peptide incubation was determined by Real Time Quantitative Polymerase Chain Reaction (RT-qPCR). The amount of amplified product was measured at each PCR cycle by using fluorescent probes and reading the signal emitted from the dyes while performing the thermal cycling. 1 μL of cDNA (5 ng) was mixed with 2 μL of RNase free water, 5 μL of iTaq Universal Master SYBR green Supermix, 1 μL of each primer of interest (500 nM), for a total volume of 10 μL per reaction. The genes studied in E. coli cells correspond to DnaK, ompC, SbmA and 16S MprF, parE for S. aureus. […] Gene expression level was analyzed using a comparative quantification method ΔCq. […] Each sample was analyzed in triplicate. […]
# primary human monocytes = test: Cytotoxicity by resazurin reduction; assay type: cell-based; settings: human monocytes 4 × 10^5 cells/well, peptide up to 100 µM, 72 h at 37 °C
# Method: as §1
# E. coli cells [8] = test: FACS internalization of FITC-labeled peptides; assay type: cell-based, Escherichia coli; settings: FITC-labeled peptide, sublethal concentration (0.5 µM), 10 min
# Method: (§7) We performed FACS analysis in order to analyze the internalization of the FITC labeled peptides into E. coli and S. aureus cells. […] After corroborating the internalization of the peptides, the labeled peptide distribution was evaluated by FACS. Live/dead cell population was analyzed by monitoring the influx of propidium iodide (PI) at 10 min and 4 h of incubation.
# (§8) Bacterial cell overnight culture was inoculated in a fresh LB to reach logarithmic phase OD600 of 0.2. A 500 µL aliquot of the bacterial suspension was incubated with 0.5 µM of each peptide for 10 min. After incubation and subsequently washes with 1× PBS at least thrice to remove presence of FITC-labeled peptide in the medium, 20,000 cells were subjected to FACS analysis using a FACSCalibur cytometer (BD Biosciences, Franklin Lakes, NJ, USA). The peptide bacterial uptake was assayed using 0.10 µM and 0.5 µM of each peptide at the first 10 min and after 4 h of peptide incubation.
# (§9) (1 picture or pasted object on this page, not shown here)
# S. aureus (ATCC 502A) [9] = test: Bacterial viability by ATP quantification (BacTiter-Glo); assay type: cell-based, Staphylococcus aureus; settings: ATP luminescence, 4 h at 37 °C, mean ± SEM, three replicates of two experiments
# Method: as §1, §5
# [10] = test system: P. aeruginosa (M8C1) clinical isolate; test: as above; assay type: cell-based, Pseudomonas aeruginosa; settings: ATP luminescence, 4 h at 37 °C, peptide up to 100 µM
# Method: as §1, §3, §4
# [11] = test system: P. aeruginosa (M18C1) clinical isolate; test: as above; assay type: cell-based, Pseudomonas aeruginosa; settings: ATP luminescence, 4 h at 37 °C, peptide up to 100 µM
# Method: as §1, §3, §4
# S. aureus (ATCC 502A) [12] = test: Minimum bactericidal concentration (CFU counting); assay type: cell-based, Staphylococcus aureus; settings: ~5 × 10^5 CFU/mL, peptide 20 to 0.1 µM in Hepes 20 mM, 0.1 M NaCl, pH 7.5, 4 h at 37 °C, then plating, two independent experiments in triplicate
# Method: as §1, §2
# S. aureus cells = test: FACS internalization of FITC-labeled peptides; assay type: cell-based, Staphylococcus aureus; settings: FITC-labeled peptide, sublethal concentration (0.5 µM), 10 min
# Method: as §7, §8, §9
# [13] = test system: S.aureus (36055) clinical isolate, MRSA; test: Bacterial viability by ATP quantification (BacTiter-Glo); assay type: cell-based, Staphylococcus aureus; settings: ATP luminescence, 4 h at 37 °C, peptide up to 100 µM
# Method: as §1, §3, §4
# [14] = test system: E. coli genes DnaK, ompC, sbmA; test: Bacterial gene expression by RT-qPCR; assay type: cell-based, Escherichia coli; settings: 0.1 µM, 30 min, RT-qPCR normalized to GAPDH
# Method: as §6
# Gene expression of Escherichia coli and Staphylococcus aureus after peptide incubation was determined by Real Time Quantitative Polymerase Chain Reaction (RT-qPCR). The amount of amplified product was measured at each PCR cycle by using fluorescent probes and reading the signal emitted from the dyes while performing the thermal cycling. 1 μL of cDNA (5 ng) was mixed with 2 μL of RNase free water, 5 μL of iTaq Universal Master SYBR green Supermix, 1 μL of each primer of interest (500 nM), for a total volume of 10 μL per reaction. The genes studied in E. coli cells correspond to DnaK, ompC, SbmA and 16S MprF, parE for S. aureus. GAPDH was used as housekeeping for date normalization in the qPCR assays. Gene expression level was analyzed using a comparative quantification method ΔCq. This method assesses the fold change compared to a calibrator sample (control or group of reference). Counts for genes of interest were adjusted in relation to a reference (housekeeper) gene GAPDH. Reactions were subjected to 60 °C for 1 min and 95 °C for 10 min, followed by 40 cycles of 95 °C for 15 s and 60 °C for 1 min. Each sample was analyzed in triplicate. Data analysis was performed using Bio-Rad CFX Manager. The figure of gene level expression was designed by R project.
# [15] = test system: S.aureus (34026) clinical isolate, MRSA; test: Bacterial viability by ATP quantification (BacTiter-Glo); assay type: cell-based, Staphylococcus aureus; settings: ATP luminescence, 4 h at 37 °C, mean ± SEM, three replicates of two experiments
# Method: as §1, §3, §4
# [16] = test system: S.aureus (39413) clinical isolate, MRSA; test: as above; assay type: cell-based, Staphylococcus aureus; settings: ATP luminescence, 4 h at 37 °C, mean ± SEM, three replicates of two experiments
# Method: as §1, §3, §4
# [17] = Liposome leakage, ANTS/DPX; settings: DOPC/DOPG (3:2) LUVs 30 µM, 37 °C, 20 mM NaCl, 10 mM Tris/HCl pH 7.5
compound,measurement,setting,value
"GLVGTLLGHIGKAILGG-OH [Peptide F2.3S, Frenatin 2.3S]","Leakage (ED50), Bacteria",E. coli cells [1],0.1 ± 0.07 µM
same,MBC100,E. coli (BL21) [2],0.62 µM
same,ED50,P. aeruginosa (PA14),3.1 ± 0.003 µM
same,ED50,P. aeruginosa (PA01),3.4 ± 0.062 µM
same,"Agglutination (MAC), Liposomes",[3],>2 µM
same,"Agglutination (MAC), Bacteria",E. coli cells [4],>5 µM
same,DNA-binding activity (gel retardation),pET28 plasmid DNA,high DNA-binding activity
same,ED50,E. coli (BL21) [5],0.23 ± 0.01 µM
same,"Depolarization (ED50), Bacteria",E. coli cells [6],0.1 ± 0.05 µM
same,16S gene expression,[7],did not induce significant changes
same,MprF gene expression,[7],did not induce significant changes
same,parE gene expression,[7],did not induce significant changes
same,CC50,primary human monocytes,>100 µM
same,Internalization into bacterial cells (FACS),E. coli cells [8],internalization within bacterial cells
same,ED50,S. aureus (ATCC 502A) [9],1.1 ± 0.07 µM
same,ED50,[10],>100 µM
same,ED50,[11],>100 µM
same,MBC100,S. aureus (ATCC 502A) [12],1.87 µM
same,Internalization into bacterial cells (FACS),S. aureus cells,internalization within bacterial cells
same,ED50,[13],>100 µM
same,DnaK gene expression,[14],upregulation
same,ompC gene expression,[14],upregulated
same,sbmA gene expression,[14],downregulation
same,ED50,[15],55.82 ± 0.005 µM
same,ED50,[16],11.99 ± 0.001 µM
same,"Leakage (ED50), Liposomes",[17],0.1 µM
"CC1(C)S[C@@H]2[C@H](NC(=O)[C@H](N)c3ccccc3)C(=O)N2[C@H]1C(=O)O [ampicillin, Ampicillin, reference compound]",DnaK gene expression,[14],upregulated
same,sbmA gene expression,[14],mild reduction
